{"source": "ChEMBL document CHEMBL1133000", "about": "“Inhibition of protein kinase C(alpha) by dequalinium analogues: dependence on linker length and geometry” (J Med Chem, 2000)"}
{"molecular_target": "Protein kinase C alpha type (Homo sapiens, UniProt P17252)", "test": "Inhibition of human recombinant PKCalpha", "units": {"IC50": "µM"}}
{"compound": "CCCC/C=C/CCCC[n+]1c(C)cc(N)c2ccccc21", "IC50": 137}
{"compound": "Cc1cc(N)c2ccccc2[n+]1CCCC/C=C\\CCCC[n+]1c(C)cc(N)c2ccccc21", "IC50": 52}
{"compound": "Cc1cc(N)c2ccccc2[n+]1CCCC/C=C/CCCC[n+]1c(C)cc(N)c2ccccc21", "IC50": 12}
